The text below walks through data of the NIST ThermoML archive (doi:10.1016/j.jct.2013.08.030).

The structures appear in SMILES notation. Numbers after ± are expanded uncertainties.

The nature of this data set: activity coefficient (dimensionless); of the first substance listed, at infinite dilution; xn = mol fraction of the nth substance listed. Particulars: 101 kPa, Liquid, Chromatography, x1 = 0.

On to `Cc1ccccc1C` [1,2-dimethylbenzene] + CCCC[N+]1(C)CCOCC1.N#C[C-](C#N)C#N, for which the activity coefficient (318.15 K) is 2.96 ± 0.2; the activity coefficient (328.15 K) turned out to be 2.99 ± 0.2; the activity coefficient (338.15 K) was 3.02 ± 0.21; the activity coefficient (348.15 K) came out at 3.04 ± 0.21; the activity coefficient (358.15 K) was 3.07 ± 0.21; the activity coefficient (368.15 K) is 3.08 ± 0.21.

As for `Cc1cccc(C)c1` [1,3-dimethylbenzene] + CCCC[N+]1(C)CCOCC1.N#C[C-](C#N)C#N, the activity coefficient is, setting by setting: (318.15 K) 3.54 ± 0.24; (328.15 K) 3.56 ± 0.24; (338.15 K) 3.61 ± 0.25; (348.15 K) 3.61 ± 0.25; (358.15 K) 3.62 ± 0.25; (368.15 K) 3.62 ± 0.25.

Regarding `Cc1ccc(C)cc1` [1,4-dimethylbenzene] + CCCC[N+]1(C)CCOCC1.N#C[C-](C#N)C#N, the activity coefficient is 3.49 ± 0.24 (318.15 K); 3.52 ± 0.24 (328.15 K); 3.54 ± 0.24 (338.15 K); 3.57 ± 0.24 (348.15 K); 3.59 ± 0.24 (358.15 K); 3.63 ± 0.25 (368.15 K).

In the case of `C1COCCO1` [1,4-dioxane] + CCCC[N+]1(C)CCOCC1.N#C[C-](C#N)C#N, the activity coefficient is 0.707 ± 0.047 (318.15 K); 0.74 ± 0.049 (328.15 K); 0.772 ± 0.05 (338.15 K); 0.798 ± 0.052 (348.15 K); 0.831 ± 0.054 (358.15 K); 0.853 ± 0.055 (368.15 K).

`C=CCCCCCCCC` [1-decene] + CCCC[N+]1(C)CCOCC1.N#C[C-](C#N)C#N: the activity coefficient is 118 ± 8 (318.15 K); 110 ± 8 (328.15 K); 101 ± 7 (338.15 K); 94.5 ± 6.5 (348.15 K); 87.8 ± 6 (358.15 K); 81.4 ± 5.6 (368.15 K).

Turning to `C=CCCCCC` [1-heptene] + CCCC[N+]1(C)CCOCC1.N#C[C-](C#N)C#N, the activity coefficient worked out at 34.1 ± 2.3 (318.15 K); 32 ± 2.2 (328.15 K); 30.2 ± 2.1 (338.15 K); 28.7 ± 2 (348.15 K); 27.2 ± 1.9 (358.15 K); 25.7 ± 1.8 (368.15 K).

`C#CCCCCC` [1-heptyne] + CCCC[N+]1(C)CCOCC1.N#C[C-](C#N)C#N: the activity coefficient was 8.28 ± 0.56 (318.15 K); 8.26 ± 0.56 (328.15 K); 8.2 ± 0.56 (338.15 K); 8.2 ± 0.56 (348.15 K); 8.13 ± 0.55 (358.15 K); 8.05 ± 0.55 (368.15 K).

Regarding `C#CCCCC` [1-hexyne] + CCCC[N+]1(C)CCOCC1.N#C[C-](C#N)C#N, the activity coefficient is, setting by setting: (318.15 K) 5.47 ± 0.37; (328.15 K) 5.5 ± 0.37; (338.15 K) 5.5 ± 0.37; (348.15 K) 5.54 ± 0.38; (358.15 K) 5.53 ± 0.38; (368.15 K) 5.51 ± 0.38.

On to `CCC[N+](=O)[O-]` [1-nitropropane] + CCCC[N+]1(C)CCOCC1.N#C[C-](C#N)C#N, for which the activity coefficient is 0.982 ± 0.062 (318.15 K); 0.99 ± 0.062 (328.15 K); 0.998 ± 0.062 (338.15 K); 1 ± 0.06 (348.15 K); 1.01 ± 0.06 (358.15 K); 1.01 ± 0.06 (368.15 K).

As for `C#CCCCCCC` [1-octyne] + CCCC[N+]1(C)CCOCC1.N#C[C-](C#N)C#N, the activity coefficient reads like this: (318.15 K) 12.8 ± 0.9; (328.15 K) 12.6 ± 0.9; (338.15 K) 12.4 ± 0.8; (348.15 K) 12.2 ± 0.8; (358.15 K) 12 ± 0.8; (368.15 K) 11.8 ± 0.8.

Regarding `C#CCCC` [1-pentyne] + CCCC[N+]1(C)CCOCC1.N#C[C-](C#N)C#N, the activity coefficient (318.15 K) worked out at 3.69 ± 0.25; the activity coefficient (328.15 K) is 3.73 ± 0.25; the activity coefficient (338.15 K) was found to be 3.75 ± 0.26; the activity coefficient (348.15 K) was found to be 3.8 ± 0.26; the activity coefficient (358.15 K) is 3.81 ± 0.26; the activity coefficient (368.15 K) turned out to be 3.83 ± 0.26.

On to `CC(C)CC(C)(C)C` [2,2,4-trimethylpentane] + CCCC[N+]1(C)CCOCC1.N#C[C-](C#N)C#N, for which the activity coefficient was found to be 103 ± 7 (318.15 K); 93.4 ± 6.4 (328.15 K); 84.2 ± 5.8 (338.15 K); 76.9 ± 5.3 (348.15 K); 70.8 ± 4.9 (358.15 K); 64.5 ± 4.4 (368.15 K).

As for `CCC(C)(C)C` [2,2-dimethylbutane] + CCCC[N+]1(C)CCOCC1.N#C[C-](C#N)C#N, the activity coefficient worked out at 56.7 ± 3.9 (318.15 K); 49.8 ± 3.4 (328.15 K); 44.5 ± 3 (338.15 K); 40.9 ± 2.8 (348.15 K); 37.7 ± 2.6 (358.15 K); 34.8 ± 2.4 (368.15 K).

`CCOC(C)(C)C` [2-ethoxy-2-methylpropane] + CCCC[N+]1(C)CCOCC1.N#C[C-](C#N)C#N: the activity coefficient by setting is: (318.15 K) 16.8 ± 1.1; (328.15 K) 16.2 ± 1.1; (338.15 K) 15.6 ± 1.1; (348.15 K) 15.3 ± 1; (358.15 K) 14.9 ± 1; (368.15 K) 14.6 ± 1.

Consider `CCC(C)(C)OC` [2-methoxy-2-methylbutane] + CCCC[N+]1(C)CCOCC1.N#C[C-](C#N)C#N, for which the activity coefficient is 8.61 ± 0.59 (318.15 K); 8.52 ± 0.58 (328.15 K); 8.42 ± 0.57 (338.15 K); 8.37 ± 0.57 (348.15 K); 8.29 ± 0.57 (358.15 K); 8.21 ± 0.56 (368.15 K).

Regarding `COC(C)(C)C` [2-methoxy-2-methylpropane] + CCCC[N+]1(C)CCOCC1.N#C[C-](C#N)C#N, the activity coefficient (318.15 K) stood at 5.74 ± 0.39; the activity coefficient (328.15 K) was 5.77 ± 0.39; the activity coefficient (338.15 K) turned out to be 5.74 ± 0.39; the activity coefficient (348.15 K) was 5.76 ± 0.39; the activity coefficient (358.15 K) amounted to 5.77 ± 0.39; the activity coefficient (368.15 K) was 5.78 ± 0.39.

On to `CC(C)CO` [2-methyl-1-propanol] + CCCC[N+]1(C)CCOCC1.N#C[C-](C#N)C#N, for which the activity coefficient (318.15 K) is 2.19 ± 0.15; the activity coefficient (328.15 K) was found to be 2.03 ± 0.14; the activity coefficient (338.15 K) is 1.87 ± 0.13; the activity coefficient (348.15 K) is 1.74 ± 0.12; the activity coefficient (358.15 K) was 1.65 ± 0.11; the activity coefficient (368.15 K) was found to be 1.56 ± 0.1.

As to `CC(C)(C)O` [2-methylpropan-2-ol] + CCCC[N+]1(C)CCOCC1.N#C[C-](C#N)C#N, the activity coefficient is 2 ± 0.14 (318.15 K); 1.88 ± 0.13 (328.15 K); 1.77 ± 0.12 (338.15 K); 1.69 ± 0.11 (348.15 K); 1.63 ± 0.11 (358.15 K); 1.58 ± 0.1 (368.15 K).

With `CCC(C)CC` [3-methylpentane] + CCCC[N+]1(C)CCOCC1.N#C[C-](C#N)C#N, the activity coefficient came to 51.3 ± 3.5 (318.15 K); 46 ± 3.1 (328.15 K); 42.3 ± 2.9 (338.15 K); 38.9 ± 2.7 (348.15 K); 36.3 ± 2.5 (358.15 K); 33.5 ± 2.3 (368.15 K).

For the molecule `C=C(C)c1ccccc1` [(1-methylethenyl)benzene] + CCCC[N+]1(C)CCOCC1.N#C[C-](C#N)C#N, the activity coefficient by setting is: (318.15 K) 2.8 ± 0.19; (328.15 K) 2.89 ± 0.2; (338.15 K) 2.99 ± 0.2; (348.15 K) 3.07 ± 0.21; (358.15 K) 3.15 ± 0.21; (368.15 K) 3.22 ± 0.22.

With `CC(C)=O` [acetone] + CCCC[N+]1(C)CCOCC1.N#C[C-](C#N)C#N, the activity coefficient turned out to be 0.741 ± 0.049 (318.15 K); 0.75 ± 0.049 (328.15 K); 0.765 ± 0.05 (338.15 K); 0.774 ± 0.051 (348.15 K); 0.791 ± 0.051 (358.15 K); 0.798 ± 0.052 (368.15 K).

On to `CC#N` [acetonitrile] + CCCC[N+]1(C)CCOCC1.N#C[C-](C#N)C#N, for which the activity coefficient reads like this: (318.15 K) 0.617 ± 0.043; (328.15 K) 0.62 ± 0.043; (338.15 K) 0.624 ± 0.043; (348.15 K) 0.624 ± 0.043; (358.15 K) 0.629 ± 0.043; (368.15 K) 0.63 ± 0.044.

As for `c1ccccc1` [benzene] + CCCC[N+]1(C)CCOCC1.N#C[C-](C#N)C#N, the activity coefficient runs as follows: (318.15 K) 1.53 ± 0.1; (328.15 K) 1.55 ± 0.1; (338.15 K) 1.57 ± 0.1; (348.15 K) 1.58 ± 0.1; (358.15 K) 1.61 ± 0.11; (368.15 K) 1.62 ± 0.11.

With `CCCCO` [butan-1-ol] + CCCC[N+]1(C)CCOCC1.N#C[C-](C#N)C#N, the activity coefficient (318.15 K) is 2.18 ± 0.15; the activity coefficient (328.15 K) came to 2.04 ± 0.14; the activity coefficient (338.15 K) is 1.91 ± 0.13; the activity coefficient (348.15 K) is 1.79 ± 0.12; the activity coefficient (358.15 K) was 1.7 ± 0.11; the activity coefficient (368.15 K) was found to be 1.61 ± 0.11.

As for `CCC(C)O` (configuration not stated) [butan-2-ol] + CCCC[N+]1(C)CCOCC1.N#C[C-](C#N)C#N, the activity coefficient turned out to be 2.05 ± 0.14 (318.15 K); 1.93 ± 0.13 (328.15 K); 1.81 ± 0.12 (338.15 K); 1.71 ± 0.11 (348.15 K); 1.64 ± 0.11 (358.15 K); 1.58 ± 0.1 (368.15 K).

As for `CCCC=O` [butanal] + CCCC[N+]1(C)CCOCC1.N#C[C-](C#N)C#N, the activity coefficient reads like this: (318.15 K) 1.2 ± 0.08; (328.15 K) 1.24 ± 0.08; (338.15 K) 1.26 ± 0.08; (348.15 K) 1.3 ± 0.08; (358.15 K) 1.33 ± 0.09; (368.15 K) 1.35 ± 0.09.

Take `C1CCCCCC1` [cycloheptane] + CCCC[N+]1(C)CCOCC1.N#C[C-](C#N)C#N: the activity coefficient is 28.1 ± 1.9 (318.15 K); 26 ± 1.8 (328.15 K); 24 ± 1.6 (338.15 K); 22.5 ± 1.5 (348.15 K); 21 ± 1.4 (358.15 K); 19.7 ± 1.3 (368.15 K).
